Values quoted from earlier work in patent publication US7288243B2, “Aerosol drug inhibition of lung metastases” (Research Development Foundation, priority 2002, dated 2007).

Conditions: concurrent administration of cyclosporin; clinical studies

CC(=O)O[C@H]1C(=O)[C@@]2(C)[C@H]([C@H](OC(=O)c3ccccc3)[C@]3(O)C[C@H](OC(=O)[C@H](O)[C@@H](NC(=O)c4ccccc4)c4ccccc4)C(C)=C1C3(C)C)[C@]1(OC(C)=O)CO[C@@H]1C[C@@H]2O [paclitaxel]
Increase of bioavailability of paclitaxel administered orally: 9 fold
